We go through five molecules from publication PMC9543606, “Structural and ITC Characterization of Peptide‐Protein Binding: Thermodynamic Consequences of Cyclization Constraints, a Case Study on Vascular Endothelial Growth Factor Ligands” (Chemistry (Weinheim an Der Bergstrasse, Germany), 2022).

The target of the assay is VEGF (Homo sapiens, UniProt P15692). The conditions noted are these: for ΔG / −TΔS / ΔH / ΔCp: ITC, 95 % confidence interval in brackets; for ΔG / −TΔS / ΔH: 50 mM HEPES/NaOH, 150 mM NaCl, pH 7.5, first binding site; for ΔG: calculated from Kd (Eq. 1); for −TΔS: calculated from ΔG and ΔH (Eq. 2); for ΔH: normalised on reverse titrations; for ΔCp: heat capacity change on binding from ΔH at 20 °C and 37 °C (Eq. 3); for Δ(ΔG 20 °C) / Δ(ΔH 20 °C) / Δ(‐TΔS) 20 °C / Δ(ΔG 37 °C) / Δ(ΔH 37 °C) / Δ(‐TΔS) 37 °C / Δ(ΔCp): ± at P=95 %.

Where [1] appears, read: 20 °C, monocyclic peptide minus peptide 4 (pairs 1–4, 3–4).
The mark [2] stands for this setting: 37 °C, monocyclic peptide minus peptide 4 (pairs 1–4, 3–4).
The mark [3] stands for this setting: 20 °C, bicyclic peptide minus its monocyclic counterpart.
Where [4] appears, read: 37 °C, bicyclic peptide minus its monocyclic counterpart.
The mark [5] stands for this setting: bicyclic peptide minus its monocyclic counterpart.
Setting [6] is: 20 °C, peptide 2 minus peptide 1 (pair 2–1).
The mark [7] stands for this setting: 20 °C, peptide 2 minus peptide 3 (pair 2–3).
Where [8] appears, read: 37 °C, peptide 2 minus peptide 1 (pair 2–1).
Setting [9] is: 37 °C, peptide 2 minus peptide 3 (pair 2–3).

Where “and” joins values, the source holds several entries; their conditions need not be identical. Equal entries are not always repeated. Where two headings read alike, the source gives them in different places. Where a SMILES comes first, the peptide text is derived from it. Bridges are numbered along the chain shown (N, C = ends). [ ]: non-standard residue; d: D form. Nle = CCCC[C@H](N)C(=O)O

Chain of VEGF (P15692 219-313): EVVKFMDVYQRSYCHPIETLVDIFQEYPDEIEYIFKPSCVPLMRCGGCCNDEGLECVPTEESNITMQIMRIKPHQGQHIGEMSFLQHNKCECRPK

For `CCCC[C@@H]1NC(=O)[C@H](C(C)C)NC(=O)[C@H](Cc2c[nH]cn2)NC(=O)[C@H]([C@@H](C)CC)NC(=O)[C@H](CC(=O)O)NC(=O)[C@@H](N)CSSC[C@@H](C(=O)N[C@@H](Cc2ccccc2)C(=O)N[C@@H](CCC(=O)O)C(=O)N[C@@H](CCC(=O)O)C(=O)N[C@@H](CC(C)C)C(N)=O)NC(=O)[C@H](CCCCN)NC(=O)[C@H](Cc2c[nH]c3ccccc23)NC(=O)[C@H](CCC(=O)O)NC(=O)[C@H](Cc2c[nH]c3ccccc23)NC1=O` [compound 4] (H-CDIHV[Nle]WEWKCFEEL-NH2; disulfide 1-11), the ΔCp was −0.33 [−0.38; −0.28] kcal⋅mol^−1.K^−1. Moreover, where the note is “20 °C”, the ΔG was −9.22 [−9.27; −9.16] kcal⋅mol^−1, the “−TΔS” value was 8.2 [7.8; 8.5] kcal⋅mol^−1 and the ΔH is −17.4 [−17.7; −17.1] kcal⋅mol^−1. In addition, where the note is “37 °C”, the ΔG is −8.71 [−8.80; −8.63] kcal⋅mol^−1, the “−TΔS” value was 14.3 [13.5; 15.1] kcal⋅mol^−1 and the ΔH was −23.0 [−23.7; −22.3] kcal⋅mol^−1.
For `CCCC[C@@H]1NC(=O)[C@H](C(C)C)NC(=O)[C@H](Cc2c[nH]cn2)NC(=O)[C@H]([C@@H](C)CC)NC(=O)[C@H](CC(=O)O)NC(=O)[C@@H](N)CSSC[C@@H](C(=O)N[C@@H](Cc2ccccc2)C(=O)N[C@@H](CCC(=O)O)C(=O)N[C@@H](CC(=O)O)C(=O)N[C@@H](CC(C)C)C(N)=O)NC(=O)[C@H](CCCCN)NC(=O)[C@H](Cc2c[nH]c3ccccc23)NC(=O)[C@H](CCC(=O)O)NC(=O)[C@H](Cc2c[nH]c3ccccc23)NC1=O` [compound 1] (H-CDIHV[Nle]WEWKCFEDL-NH2; disulfide 1-11), the ΔCp is −0.29 [−0.32; −0.26] kcal⋅mol^−1.K^−1. Moreover, under setting [1], the “Δ(ΔG 20 °C)” value is 0.2 ± 0.1 kcal⋅mol^−1 and 0.16±0.10 kcal⋅mol^−1; the “Δ(ΔH 20 °C)” value was -0.4 ± 0.6 kcal⋅mol^−1; the “Δ(‐TΔS) 20 °C” value was determined as 0.6 ± 0.7 kcal⋅mol^−1. Under setting [2], the “Δ(ΔG 37 °C)” value is 0.2 ± 0.1 kcal⋅mol^−1 and 0.20±0.09 kcal⋅mol^−1; the “Δ(ΔH 37 °C)” value was determined as 0.2 ± 0.8 kcal⋅mol^−1; the “Δ(‐TΔS) 37 °C” value stood at 0.0 ± 1.0 kcal⋅mol^−1. Under “20 °C”, the ΔG was −9.05 [−9.15; −8.97] kcal⋅mol^−1 and the “−TΔS” value is 8.7 [8.2; 9.3] kcal⋅mol^−1. Also, for the setting “37 °C”, the ΔG is −8.51 [−8.56; −8.46] kcal⋅mol^−1, the “−TΔS” value was 14.2 [13.8; 14.7] kcal⋅mol^−1 and the ΔH was −22.8 [−23.1; −22.4] kcal⋅mol^−1. Also, the “Δ(ΔCp)” value (monocyclic peptide minus peptide 4 (pairs 1–4, 3–4)) turned out to be 0.04±0.06 kcal⋅mol^−1.K^−1.
Consider `CCCC[C@@H]1NC(=O)[C@H](C(C)C)NC(=O)[C@H](Cc2c[nH]cn2)NC(=O)[C@H]([C@@H](C)CC)NC(=O)[C@H](CC(=O)O)NC(=O)[C@@H](N)CSSC[C@@H]2NC(=O)[C@H](CCCCNC(=O)CC[C@@H](C(=O)N[C@@H](CC(C)C)C(N)=O)NC(=O)[C@H](CCC(=O)O)NC(=O)[C@H](Cc3ccccc3)NC2=O)NC(=O)[C@H](Cc2c[nH]c3ccccc23)NC(=O)[C@H](CCC(=O)O)NC(=O)[C@H](Cc2c[nH]c3ccccc23)NC1=O` [4 c] (H-CDIHV[Nle]WEWKCFEEL-NH2; disulfide 1-11; lactam 10-14), for which the ΔCp was −0.37 [−0.43; −0.31] kcal⋅mol^−1.K^−1. Also, the “Δ(ΔG 20 °C)” value (20 °C, bicyclic peptide minus its monocyclic counterpart (1 c–1, 2 c–2, 3 c–3, 4 c–4)) is given as 0.06±0.12 kcal⋅mol^−1. For the same molecule, under setting [3], the “Δ(ΔH 20 °C)” value was determined as 1.4±0.7 kcal⋅mol^−1 and the “Δ(‐TΔS) 20 °C” value was −1.3±0.9 kcal⋅mol^−1. For the same molecule, under setting [4], the “Δ(ΔG 37 °C)” value amounted to 0.04±0.14 kcal⋅mol^−1, the “Δ(ΔH 37 °C)” value came to 0.8±1.2 kcal⋅mol^−1 and the “Δ(‐TΔS) 37 °C” value is −0.8±1.3 kcal⋅mol^−1. For the same molecule, where the note is “20 °C”, the ΔG is −9.16 [−9.27; −9.05] kcal⋅mol^−1, the “−TΔS” value was 6.8 [6.1; 7.6] kcal⋅mol^−1 and the ΔH is −16.0 [−16.6; −15.4] kcal⋅mol^−1. Also, under “37 °C”, the ΔG is −8.68 [−8.79; −8.56] kcal⋅mol^−1, the “−TΔS” value is 13.5 [12.5; 14.7] kcal⋅mol^−1 and the ΔH was −22.2 [−23.2; −21.3] kcal⋅mol^−1. In addition, the “Δ(ΔCp)” value under setting [5] was −0.04±0.08 kcal⋅mol^−1.K^−1.
As for `CCCC[C@@H]1NC(=O)[C@H](C(C)C)NC(=O)[C@H](Cc2c[nH]cn2)NC(=O)[C@H]([C@@H](C)CC)NC(=O)[C@H](CC(=O)O)NC(=O)[C@@H](N)CSSC[C@@H](C(=O)N[C@@H](Cc2ccccc2)C(=O)N[C@@H](CCC(=O)O)C(=O)N[C@@H](CCCCN)C(=O)N[C@@H](CC(C)C)C(N)=O)NC(=O)[C@H](CC(=O)O)NC(=O)[C@H](Cc2c[nH]c3ccccc23)NC(=O)[C@H](CCC(=O)O)NC(=O)[C@H](Cc2c[nH]c3ccccc23)NC1=O` [compound 2], the ΔCp was −0.36 [−0.40; −0.32] kcal⋅mol^−1.K^−1. Besides, under setting [6], the “Δ(ΔG 20 °C)” value is listed as −0.08±0.12 kcal⋅mol^−1 and the “Δ(ΔH 20 °C)” value was 2.0 ± 0.6 kcal⋅mol^−1. Also, under setting [7], the “Δ(ΔG 20 °C)” value was 0.3 ± 0.2 kcal⋅mol^−1 and 0.33±0.12 kcal⋅mol^−1; the “Δ(ΔH 20 °C)” value was determined as 1.4 ± 0.6 kcal⋅mol^−1; the “Δ(‐TΔS) 20 °C” value was -1.0 kcal⋅mol^−1 and −1.0±0.8 kcal⋅mol^−1. Also, under setting [8], the “Δ(ΔG 37 °C)” value is reported as −0.25±0.08 kcal⋅mol^−1, the “Δ(ΔH 37 °C)” value amounted to 0.7 ± 0.7 kcal⋅mol^−1 and the “Δ(‐TΔS) 37 °C” value is on record as -1.0 ± 0.8 kcal⋅mol^−1. Further, under setting [9], the “Δ(ΔG 37 °C)” value was 0.3 ± 0.1 kcal⋅mol^−1 and 0.34±0.08 kcal⋅mol^−1; the “Δ(ΔH 37 °C)” value is 1.0 ± 0.7 kcal⋅mol^−1; the “Δ(‐TΔS) 37 °C” value is -0.6 ± 0.8 kcal⋅mol^−1. Moreover, for the setting “20 °C”, the ΔG is −9.13 [−9.21; −9.05] kcal⋅mol^−1 and the “−TΔS” value was 6.7 [6.3; 7.1] kcal⋅mol^−1. Moreover, under “37 °C”, the ΔG was −8.76 [−8.82; −8.70] kcal⋅mol^−1, the “−TΔS” value was 13.3 [12.7; 13.9] kcal⋅mol^−1 and the ΔH is −22.0 [−22.6; −21.5] kcal⋅mol^−1. Besides, the “Δ(ΔCp)” value (peptide 2 minus peptide 1 (pair 2–1)) is on record as −0.07±0.05 kcal⋅mol^−1.K^−1. For the same molecule, the “Δ(ΔCp)” value (peptide 2 minus peptide 3 (pair 2–3)) was −0.02±0.05 kcal⋅mol^−1.K^−1.
For `CCCC[C@@H]1NC(=O)[C@H](C(C)C)NC(=O)[C@H](Cc2c[nH]cn2)NC(=O)[C@H]([C@@H](C)CC)NC(=O)[C@H](CC(=O)O)NC(=O)[C@@H](N)CSSC[C@@H]2NC(=O)[C@H](CCC(=O)NCCCC[C@@H](C(=O)N[C@@H](CC(C)C)C(N)=O)NC(=O)[C@H](CCC(=O)O)NC(=O)[C@H](Cc3ccccc3)NC2=O)NC(=O)[C@H](Cc2c[nH]c3ccccc23)NC(=O)[C@H](CCC(=O)O)NC(=O)[C@H](Cc2c[nH]c3ccccc23)NC1=O` [3 c], the ΔCp is −0.38 [−0.41; −0.35] kcal⋅mol^−1.K^−1. For the same molecule, under setting [3], the “Δ(ΔH 20 °C)” value was determined as 1.2±0.7 kcal⋅mol^−1 and the “Δ(‐TΔS) 20 °C” value was −1.6±0.8 kcal⋅mol^−1. Moreover, under setting [4], the “Δ(ΔH 37 °C)” value is reported as 0.6±0.6 kcal⋅mol^−1 and the “Δ(‐TΔS) 37 °C” value is listed as −1.1±0.7 kcal⋅mol^−1. Also, where the note is “20 °C”, the ΔG result is “−.89 [−10.01; −9.78] kcal⋅mol^−1”, the “−TΔS” value is 6.1 [5.6; 6.5] kcal⋅mol^−1 and the ΔH is −16.0 [−16.3; −15.6] kcal⋅mol^−1. Further, for the setting “37 °C”, the ΔG is −9.61 [−9.71; −9.52] kcal⋅mol^−1, the “−TΔS” value is 12.8 [12.3; 13.2] kcal⋅mol^−1 and the ΔH is −22.4 [−22.8; −22.0] kcal⋅mol^−1. Also, under setting [5], the “Δ(ΔCp)” value is −0.04±0.05 kcal⋅mol^−1.K^−1.
